Assay results taken from ChEMBL document CHEMBL1201862, “PubChem BioAssay data set” (2004).
The source made the active and inactive calls.

Legend:
[1] = molecular target: T1, Heat shock factor protein 1 (Mus musculus, UniProt P38532); test: inhibition of MG132-induced HSE-luciferase signal, confirmation, cell-based, NIH3T3, luminescence, dose retest (AID 2382); assay type: functional;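 note: NIH3T3 fibroblasts with HSF1-driven luciferase reporter stressed by proteasome inhibitor MG132; luminescence from HSF1-driven luciferase expression after 8 hours of MG132 stress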
T1 sequence (P38532 whole entry): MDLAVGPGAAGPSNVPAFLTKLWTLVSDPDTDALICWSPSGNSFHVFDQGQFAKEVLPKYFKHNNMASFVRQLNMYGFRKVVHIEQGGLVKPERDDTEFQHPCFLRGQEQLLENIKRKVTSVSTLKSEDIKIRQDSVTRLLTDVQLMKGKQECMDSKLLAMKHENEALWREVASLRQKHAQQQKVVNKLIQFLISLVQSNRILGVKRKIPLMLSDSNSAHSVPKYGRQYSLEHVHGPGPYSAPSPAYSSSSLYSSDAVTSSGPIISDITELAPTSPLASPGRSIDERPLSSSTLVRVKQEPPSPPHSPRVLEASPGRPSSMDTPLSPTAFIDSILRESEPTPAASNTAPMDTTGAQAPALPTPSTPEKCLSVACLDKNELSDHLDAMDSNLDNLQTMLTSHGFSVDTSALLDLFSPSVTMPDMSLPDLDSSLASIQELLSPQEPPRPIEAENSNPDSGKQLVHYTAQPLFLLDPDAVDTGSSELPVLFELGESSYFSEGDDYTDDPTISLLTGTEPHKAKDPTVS

Cytochrome P450 3A4 = Cytochrome P450 3A4 (Homo sapiens, UniProt P08684); conditions: Potency;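 note: confirmatory qHTS run detecting inhibitors and substrates of CYP3A4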
[2] = inhibitors of intracellular T. cruzi replication, confirmation, NIH3T3 host cells, beta-gal luminescence (AID 2044); assay type: functional, cell-based;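 note: intracellular parasites grown in NIH/3T3 mouse fibroblasts as host cells; luminescent beta-galactosidase reporter signal from transgenic T. cruzi replicating inside host cells; inhibitors lower the luminescence signal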
[3] = cytotoxicity toward NIH3T3 fibroblasts, dose response, counter-screen, cell-based, ATP luminescence, mouse fibroblasts (AID 2010); assay type: functional;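 note: cells exposed to compound for about 90 hours before reading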
[4] = inhibitors of HIV Env-driven cell fusion, dose response, cherry-pick (AID 652057); assay type: functional, cell-based
[5] = ZM109 Env clade C HIV-1 fusion inhibitors, dose response, HeLa effector, CEM target cells, luciferase, cherry-pick (AID 652058); assay type: functional, cell-based
[6] = off-target signal loss in HeLa-CEM21 co-culture – HeLa F-luc CTL cells, cherry-picked, counter-screen for HIV-1 Env fusion inhibitor project, dose response (AID 652040); assay type: functional, cell-based;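 note: potency for signal decrease marking cytotoxic or nonspecific inhibition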
[7] = inhibitors of clade B AD8 Env fusion, dose response, cell-based, cherry-pick (AID 652062); assay type: functional;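 note: luciferase signal from cell-cell fusion driven by HIV-1 clade B AD8 Env; potency is for inhibitors of fusion seen as a drop in luminescence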
[8] = intracellular Trypanosoma cruzi inhibitors in host cells – cell-based, plate reader, cherry-pick samples, set 3, dose response (AID 651818); assay type: functional;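 note: compounds incubated with infected cells for about four days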
[9] = molecular target: FAD-linked sulfhydryl oxidase ALR (Homo sapiens, UniProt P55789); test: inhibitors of human ALR sulfhydryl oxidase, dose response, biochemical, H2O2 detection, luminescence, cherry-pick (AID 493248)
[10] = molecular target: T2, Rac GTPase-activating protein 1 (Homo sapiens, UniProt Q9H0H5); test: MgcRacGAP GTPase-activating activity inhibitors, confirmation, biochemical, ADP Hunter fluorescence, primary and confirmatory (AID 624330); assay type: functional
T2 sequence (Q9H0H5 whole entry): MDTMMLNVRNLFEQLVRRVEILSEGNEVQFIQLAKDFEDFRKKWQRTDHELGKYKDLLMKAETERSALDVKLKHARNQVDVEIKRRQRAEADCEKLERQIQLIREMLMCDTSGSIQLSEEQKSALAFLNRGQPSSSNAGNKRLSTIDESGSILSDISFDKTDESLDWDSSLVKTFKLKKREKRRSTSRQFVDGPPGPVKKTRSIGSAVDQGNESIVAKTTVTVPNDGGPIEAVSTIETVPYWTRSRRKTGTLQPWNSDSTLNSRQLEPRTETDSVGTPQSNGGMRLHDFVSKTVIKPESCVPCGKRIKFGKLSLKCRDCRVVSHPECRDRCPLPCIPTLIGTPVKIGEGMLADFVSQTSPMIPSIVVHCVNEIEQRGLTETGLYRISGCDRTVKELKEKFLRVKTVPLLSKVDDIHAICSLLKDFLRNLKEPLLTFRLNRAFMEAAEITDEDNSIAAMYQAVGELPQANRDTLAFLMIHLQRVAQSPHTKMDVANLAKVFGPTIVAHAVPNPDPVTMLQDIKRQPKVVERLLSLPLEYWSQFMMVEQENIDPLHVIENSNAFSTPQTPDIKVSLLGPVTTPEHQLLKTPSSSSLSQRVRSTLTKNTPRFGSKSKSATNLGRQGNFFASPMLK

Large T antigen = Large T antigen (Simian virus 40, UniProt P03070); assay type: functional, Betapolyomavirus macacae;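 note: Confirmatory-stage PubChem screen for compounds that inhibit SV40 T antigen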
[11] = molecular target: T3, RNA-binding protein pos-1 (Caenorhabditis elegans, UniProt G5EF15); test: inhibitors of POS-1/mex-3 RNA binding, dose response, biochemical, fluorescence polarization (AID 1964);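 note: purified POS-1 fused to maltose binding protein made in E. coli; potency of compounds blocking POS-1 binding to fluorescent RNA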
T3 sequence (G5EF15 whole entry): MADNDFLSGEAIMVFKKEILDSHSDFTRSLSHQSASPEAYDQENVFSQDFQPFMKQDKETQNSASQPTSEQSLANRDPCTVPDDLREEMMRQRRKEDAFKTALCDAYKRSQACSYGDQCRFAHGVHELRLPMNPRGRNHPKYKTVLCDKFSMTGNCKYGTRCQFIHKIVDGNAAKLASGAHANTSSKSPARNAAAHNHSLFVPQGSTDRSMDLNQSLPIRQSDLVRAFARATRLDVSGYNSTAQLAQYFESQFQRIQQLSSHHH

[12] = molecular target: T4, Zinc finger protein mex-5 (Caenorhabditis elegans, UniProt Q9XUB2); test: MEX-5/TCR-2 RNA interaction inhibitors, dose response, biochemical, C. elegans, fluorescence polarization (AID 1960)
T4 sequence (Q9XUB2 whole entry): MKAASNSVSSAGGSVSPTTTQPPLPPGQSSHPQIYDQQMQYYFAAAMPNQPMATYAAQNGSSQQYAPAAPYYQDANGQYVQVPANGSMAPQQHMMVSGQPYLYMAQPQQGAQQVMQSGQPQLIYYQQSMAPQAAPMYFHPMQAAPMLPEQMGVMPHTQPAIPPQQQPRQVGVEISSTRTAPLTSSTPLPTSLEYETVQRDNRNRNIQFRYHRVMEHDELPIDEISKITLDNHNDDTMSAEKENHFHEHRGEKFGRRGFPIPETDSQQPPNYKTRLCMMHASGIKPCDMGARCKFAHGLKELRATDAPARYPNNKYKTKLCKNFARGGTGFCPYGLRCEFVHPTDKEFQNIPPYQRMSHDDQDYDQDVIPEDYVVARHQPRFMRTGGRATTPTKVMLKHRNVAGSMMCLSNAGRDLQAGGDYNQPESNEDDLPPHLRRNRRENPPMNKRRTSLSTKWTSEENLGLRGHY

Cytochrome P450 3A4, sequence (P08684 whole entry): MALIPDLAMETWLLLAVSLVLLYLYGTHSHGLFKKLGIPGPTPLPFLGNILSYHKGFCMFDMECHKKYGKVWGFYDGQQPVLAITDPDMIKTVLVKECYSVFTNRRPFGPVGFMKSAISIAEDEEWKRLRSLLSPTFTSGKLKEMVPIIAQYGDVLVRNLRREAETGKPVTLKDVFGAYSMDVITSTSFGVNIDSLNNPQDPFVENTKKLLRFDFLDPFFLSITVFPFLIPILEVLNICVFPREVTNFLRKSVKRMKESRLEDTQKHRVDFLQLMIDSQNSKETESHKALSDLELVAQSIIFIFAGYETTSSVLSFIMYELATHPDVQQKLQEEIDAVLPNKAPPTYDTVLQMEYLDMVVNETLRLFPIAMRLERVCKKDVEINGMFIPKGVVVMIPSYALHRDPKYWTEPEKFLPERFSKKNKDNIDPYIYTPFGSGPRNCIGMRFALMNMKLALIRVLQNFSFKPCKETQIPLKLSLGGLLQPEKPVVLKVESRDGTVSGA
Large T antigen, sequence (P03070 whole entry, the tested form may be a part): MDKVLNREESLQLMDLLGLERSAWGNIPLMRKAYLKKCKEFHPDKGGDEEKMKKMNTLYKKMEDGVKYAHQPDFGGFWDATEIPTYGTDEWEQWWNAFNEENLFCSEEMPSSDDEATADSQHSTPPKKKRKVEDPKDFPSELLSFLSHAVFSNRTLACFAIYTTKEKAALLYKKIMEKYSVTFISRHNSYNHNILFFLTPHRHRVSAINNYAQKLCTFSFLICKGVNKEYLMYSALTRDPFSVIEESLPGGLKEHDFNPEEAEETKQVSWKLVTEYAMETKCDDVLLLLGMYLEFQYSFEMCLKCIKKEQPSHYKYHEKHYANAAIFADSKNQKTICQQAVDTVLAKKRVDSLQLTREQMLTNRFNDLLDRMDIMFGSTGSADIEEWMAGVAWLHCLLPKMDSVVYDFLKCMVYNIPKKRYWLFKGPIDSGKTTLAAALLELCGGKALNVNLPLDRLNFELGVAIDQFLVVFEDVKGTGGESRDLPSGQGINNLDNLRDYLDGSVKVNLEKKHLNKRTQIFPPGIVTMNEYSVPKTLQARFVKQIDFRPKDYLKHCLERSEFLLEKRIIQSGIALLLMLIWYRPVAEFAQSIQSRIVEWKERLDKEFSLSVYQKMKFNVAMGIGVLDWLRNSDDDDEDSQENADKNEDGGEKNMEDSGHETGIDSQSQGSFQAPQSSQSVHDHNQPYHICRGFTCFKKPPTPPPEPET
FAD-linked sulfhydryl oxidase ALR, sequence (P55789 whole entry): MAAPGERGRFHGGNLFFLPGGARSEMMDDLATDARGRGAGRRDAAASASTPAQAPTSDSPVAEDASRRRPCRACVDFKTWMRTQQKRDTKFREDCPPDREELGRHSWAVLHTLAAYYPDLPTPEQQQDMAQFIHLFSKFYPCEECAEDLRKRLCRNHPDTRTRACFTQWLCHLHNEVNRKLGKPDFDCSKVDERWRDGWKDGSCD

CCCc1nc(-c2ccccc2O)n(-c2ccccc2)n1
EC50 [1]: > 195 µM (not active)

CN1CC(CO)=C[C@H]2c3cccc4[nH]cc(c34)C[C@H]21
AC50 (Cytochrome P450 3A4): 39.8 µM (inconclusive)

CCCCCn1c(SCC(=O)CC(=O)OCC)nc2cc(C(=O)N3CCC(C(N)=O)CC3)ccc2c1=O
EC50 [1]: > 195 µM (not active)

CCCn1c(C)nc2c(NC(C)CCCN(CC)CC)nc(C)nc21 (stereo not given)
AC50 (Cytochrome P450 3A4): 25.1 µM (inconclusive)

CN(Cc1ccc(Cl)cc1Cl)C(=O)c1cccc(S(=O)(=O)N2CCN(c3ccccc3)CC2)c1
EC50 [2]: 1.64 µM (active)
EC50 [3]: > 60 µM (not active)
AC50 [4]: 23.9 µM (active)
AC50 [5]: 36 µM (active)
AC50 [6]: > 70 µM (inactive)
AC50 [7]: 43 µM (active)

C[C@H]1CN([C@@H](C)CO)C(=O)Cc2cc(NC(=O)Cc3cn(C)c4ccccc34)ccc2O[C@H]1CN(C)Cc1ccc(Oc2ccccc2)cc1
AC50 [8]: 5.58 µM (active)

Nc1ccc2[nH]c(C3CCCCC3)nc2c1
AC50 [9]: 1.13 µM (active)
IC50 [10]: 70.2 µM (active)

COc1ccc(-c2coc3cc(OC(C)=O)cc(OC(C)=O)c3c2=O)cc1
AC50 (Cytochrome P450 3A4): 31.6 µM (inconclusive)

CC(=O)c1c(O)c(C)c(O)c2c1OC1=CC(=O)C(C(C)=O)C(=O)[C@@]12C (stereo not given in full)
AC50 (Cytochrome P450 3A4): 12.6 µM (inconclusive)

C[C@H]1CN([C@@H](C)CO)C(=O)Cc2cc(NS(=O)(=O)c3ccc(F)cc3)ccc2O[C@@H]1CN(C)Cc1ccc(-c2ccccc2)cc1
AC50 [8]: 3.21 µM (active)

C[C@H]1CN([C@@H](C)CO)C(=O)Cc2cc(N(C)C)ccc2O[C@H]1CN(C)Cc1ccc(Oc2ccccc2)cc1
AC50 [8]: 1.57 µM (active)

Cc1ccc(S(=O)(=O)N(C)C[C@@H]2Oc3ncc(Br)cc3C(=O)N([C@@H](C)CO)C[C@@H]2C)cc1
AC50 [4]: 4.36 µM (active)
AC50 [5]: 3.56 µM (active)
AC50 [7]: 9.72 µM (active)

Cn1cc(CN2CCc3ccccc3C2)c2ccccc21
EC50 [1]: > 195 µM (not active)

Oc1ccc(Nc2nc(Cl)nc(NCc3ccco3)n2)cc1
IC50 (Large T antigen): 10.7 µM (active)

COc1cc2ccc(=O)oc2c2ccoc12 [SPHONDIN]
AC50 (Cytochrome P450 3A4): 3.98 µM (inconclusive)

C=CCOC(=O)C(C(=O)CC)C(NC(=O)OC)c1ccc(F)cc1 (stereo not given)
AC50 (Cytochrome P450 3A4): 3.16 µM (inconclusive)

COc1cc(/C=C/C(=O)OCC(=O)Nc2ccc(S(N)(=O)=O)cc2)ccc1O
IC50 (Large T antigen): 20 µM (active)

Cc1cc(O)c(C=O)c2c1C(=O)Oc1c(COC(=O)/C=C/C(=O)O)c(O)c(C(=O)O)c(C)c1O2 [FUMARPROTOCETRARIC ACID]
AC50 (Cytochrome P450 3A4): 39.8 µM (inconclusive)

Cc1cc(O)nc(N/N=C/c2c[nH]c3ccccc23)n1
IC50 (Large T antigen): 24.6 µM (active)

C[C@H](CO)N1C[C@H](C)[C@H](CN(C)CC2CC2)Oc2c(NC(=O)Nc3ccc(C(F)(F)F)cc3)cccc2C1=O
AC50 [8]: 2.66 µM (active)

CCOc1ccc(NCc2cccn2-c2nnc(N3CCC(C(=O)NCCCN4CCCCC4)CC3)s2)cc1
EC50 [1]: > 195 µM (not active)
IC50 [10]: 64.7 µM (active)

Cc1n[nH]c2ncc(C(=O)c3ccccc3O)cc12
AC50 [4]: 6.5 µM (active)
AC50 [5]: 0.606 µM (active)
AC50 [6]: 2.78 µM (active)
AC50 [7]: 4.64 µM (active)

C[C@H]1CN([C@@H](C)CO)C(=O)Cc2cc(NS(=O)(=O)c3ccccc3)ccc2O[C@H]1CN(C)Cc1ccc(C(=O)Nc2ccccc2N)cc1
AC50 [8]: 3.55 µM (active)

Cc1cc(OCC(=O)NCCc2ccc(S(N)(=O)=O)cc2)c2c(C)cc(=O)oc2c1
EC50 [1]: > 195 µM (not active)

COc1ccc2c(c1)OCC(Cc1ccc(OC)c(OC(C)=O)c1)C2=O (stereo not given) [DEOXYSAPPANONE B 7,3'-DIMETHYL ETHER ACETATE]
AC50 (Cytochrome P450 3A4): 39.8 µM (inconclusive)

COC(=O)c1ccc(C23CC4(C2)[C@H](CN(Cc2ccc(C(F)(F)F)cc2)[C@@H]4c2ccccc2)C3c2ccccc2)cc1 (stereo not given in full)
EC50 [11]: > 300 µM (not active)
EC50 [12]: > 300 µM (not active)
AC50 (Cytochrome P450 3A4): 25.1 µM (inconclusive)

C[C@@H]1CN([C@@H](C)CO)C(=O)c2cccc(NC(=O)C3CCCCC3)c2O[C@H]1CN(C)CC1CC1
AC50 [8]: 8.92 µM (active)

c1cnc2ccc(C(c3nnnn3C3CCCCC3)N3CCCCC3)cc2c1 (stereo not given)
AC50 [4]: 4.05 µM (active)
AC50 [5]: 14.9 µM (active)
AC50 [6]: 6.97 µM (active)
AC50 [7]: 10.1 µM (active)

COC(=O)/C=C/C(=O)Nc1ccc(O)c(Cl)c1
IC50 (Large T antigen): 11.7 µM (active)

COc1cc(/C=N/N2C(=O)C3C4C=CC(CC4)C3C2=O)ccc1O (stereo not given)
IC50 (Large T antigen): 10.1 µM (active)

COc1ccc(NC(=O)Nc2ccc3c(c2)CC(=O)N([C@@H](C)CO)C[C@H](C)[C@H](CN(C)Cc2ccc(-c4ccccc4)cc2)O3)cc1
AC50 [8]: 3.37 µM (active)

COc1ccc(S(=O)(=O)Nc2ccc3c(c2)C(=O)N([C@@H](C)CO)C[C@H](C)[C@H](CN(C)Cc2ccc(C(F)(F)F)cc2)O3)cc1
AC50 [8]: 4.07 µM (active)

O=C(CCc1ccccc1)Nc1cccc([N+](=O)[O-])c1
EC50 [1]: > 195 µM (not active)

CC(C)CNC(=O)c1ccccc1NC(=O)c1ccccc1N(C)S(=O)(=O)c1ccccc1
AC50 [4]: 0.961 µM (active)
AC50 [5]: 0.937 µM (active)
AC50 [6]: 1.62 µM (active)
AC50 [7]: 0.261 µM (active)

CCC1=C(OC(=O)N(CC)CC)N2C(=O)O/C(=N\CCOC)[C@]2(C)[C@H]2C1=CC[C@H]1C(=O)N(C)C(=O)[C@H]12
AC50 (Cytochrome P450 3A4): 10 µM (inconclusive)
